The values that follow come from patent publication US6063776A, “Sitostanol formulation with emulsifier to reduce cholesterol absorption and method for preparing and use of same” (Washington University, priority 1999, dated 2000).

One data set concerns cholesterol absorption. Particulars: cited from earlier work.
In a further data set the test system is serum cholesterol. Particulars: cited from earlier work.
A short description of data set [1]: Solubility in artificial bile of sonicated, lyophilized sitostanol mixtures (Example 6). As to conditions: compared with lecithin and lysolecithin / SSL. The data set is classed as physicochemical. On the procedure:
Solubility in artificial bile was determined by adding 8 mM sodium taurocholate 5 mM PC 0.15 M NaCl 15 mM sodium phosphate pH 7.4 (artificial bile), rotating for 30 min. at 37° and centrifuging at 17,000×g for 1 min. The pellet was washed once and the combined sups and pellet were counted separately.

Data set [2] relates to hypocholesterolemic activity. As to conditions: rat, in vivo; cited from earlier work.
The conditions of data set [3]: in vivo; cited from earlier work.
The nature of data set [4]: Solubility in artificial bile with variable amounts of lecithin, repeated extraction (Example 3). The data set is classed as physicochemical. As to conditions: tenfold excess of lecithin. The method, then: Sitostanol, tracer amount of [^3 H]sitostanol, and other compounds that are found in the gut or that are commonly used as food additives were mixed together in chloroform solution at a fixed mole ratio. An aliquot, containing 1.2 μMol of sitostanol, was transferred to an evacuation tube and the solvent was removed under reduced pressure (<50 mtorr). The experiment was initiated by adding 0.5 mL of artificial bile (8 mM sodium taurocholate containing 5 mM soy lecithin and […], pH 7.4) followed by rotation at 8 rev/min for 30 min at 37° C. The tube was then centrifuged for 1 minute at 17,000×g to precipitate any solid material, the supernatant was removed and added to scintillation fluid for measurement of radioactivity, and the percent of radioactivity in the artificial bile supernatant was calculated. Table I below summarizes the solubility of sitostanol mixtures in the presence of artificial bile salt.
The effectiveness of variable amounts of lecithin to solubilize sitostanol was studied as in Example #1, except that after rotation at 37° for 30 min residual sedimenting sitostanol was re-extracted twice by vortexing with 0.5 ml additional artificial bile and recentrifuging. The following results were obtained:
When [^3 H]phosphatidylcholine was added as a tracer instead of [^3 H]sitostanol, the amount of lecithin solubilized was 93.3%. […]

A short description of data set [5]: Solubility of sitostanol mixtures dried from chloroform in artificial bile (Example 1). Particulars: artificial bile (8 mM sodium taurocholate, 5 mM soy lecithin, pH 7.4), 37° C, 30 min; mixture dried from chloroform. The data set is classed as physicochemical.
Protocol: An aliquot, containing 1.2 μMol of sitostanol, was transferred to an evacuation tube and the solvent was removed under reduced pressure (<50 mtorr). The experiment was initiated by adding 0.5 mL of artificial bile (8 mM sodium taurocholate containing 5 mM soy lecithin and 0.15 mM NaCl, pH 7.4) followed by rotation at 8 rev/min for 30 min at 37° C. The tube was then centrifuged for 1 minute at 17,000×g to precipitate any solid material, the supernatant was removed and added to scintillation fluid for measurement of radioactivity, and the percent of radioactivity in the artificial bile supernatant was calculated.

Where two headings read alike, the source gives them in different places.

For sitostanol ester, in the data set with cholesterol absorption (ester dissolved in dietary fat compared to the unesterified sterol, humans), the “less effective at reducing cholesterol absorption” value was 21%.
For `CC[C@H](CC[C@@H](C)[C@H]1CC[C@H]2[C@@H]3CC=C4C[C@@H](O)CC[C@]4(C)[C@H]3CC[C@]12C)C(C)C` [sitosterol], the “decrease of serum cholesterol levels” value in the data set with serum cholesterol (3-9 g/day powdered sitosterol) was 12%. Besides, the “reduction of serum cholesterol” value in the data set on serum cholesterol (5-18 g sitosterol/day) was 16-20%.
For neomycin, the “effect on cholesterol absorption” value in the data set on cholesterol absorption (given chronically (cholestyramine) or orally (neomycin)) is listed as “reduces cholesterol absorption effectively”.
Turning to `CCCCCCCCCCCCCCCCCC(=O)OC(C)C(=O)OC(C)C(=O)[O-].[Na+]` (centres unmarked) [SSL, Sodium stearoyl-2-lactylate], the “effectiveness in solubilizing sitostanol” value in data set [1] is “as effective as lecithin and lysolecithin”.
Take `CC[C@H](CC[C@@H](C)[C@H]1CC[C@H]2[C@@H]3CC[C@H]4C[C@@H](O)CC[C@]4(C)[C@H]3CC[C@]12C)C(C)C` [Sitostanol, sitostanol]: the “potency relative to other phytosterols” value in data set [2] was “more potent than other phytosterols”. Further, the absorption result in data set [3] is “non-absorbable”. For the same compound, the “reduction of serum cholesterol” value in the data set with serum cholesterol (1.5 g/day, severe hypercholesterolemia) is reported as 15%. The “effect in moderate hypercholesterolemia” value with serum cholesterol (3 g/day) was “no effect”. Further, in data set [4], the sitostanol remaining insoluble came to 32%. Further, in data set [5], the “Soluble Sterol” value stood at 2.3%.
